Test results from patent US9125352B2, “Method for maturing and synchronizing conifer somatic embryos” (SweTree Technologies AB, priority 2010, dated 2015).

Columns and labels:
[1] = system: embryogenic callus of Scots pine, Pinus sylvestris, cell-line 42:6:3; experiment: Inositol concentration series on DCR maturation medium and germination on DKM (Example 6); format: cell-based
Text: In order to verify the broad use of the newly invented method, additional conifers have been tested by adapting the methods of Examples 4, and 5. Embryogenic callus of Scots pine, Pinus sylvestris, cell-line 42:6:3, was proliferated on DCR medium (Burg et al. 2007:, J. Exp. Bot. 58: 687-698) containing 2,4-D and BA at the same concentrations as described for spruce. The cells were taken through the early maturation step on DCR medium containing 7.5% polyethylene glycol 400, 3% maltose (replacing sucrose) and 16, mg per liter abscisic acid (Burg et al. 2007:, J. Exp. Bot. 58: 687-698). Samples of cells were then exposed to the same medium containing inositol at concentrations of 0.0005, M 0.1, M, 0.2, M, 0.25, M, 0.3, M or 0.5 M for four weeks. […] Somatic embryogenesis is more problematic in pine than in spruce, so that experiments with mature embryos were on a small scale.

[2] = system: embryos of cell-line 28:05; experiment: Growth of germinated inositol-treated embryos in stonewool pots for three months (Example 5); format: in vivo, Norway spruce
Experimental: Embryos of cell-line 28:05, treated with 0.25, M inositol and germinated in vitro as described above were grown on in stonewool in plastic pots 8×8×10, cm with standard commercial mineral nutrition in a growth chamber in continuous light at 20° C. for three months.

[3] = system: Mexican Yellow Pine, Pinus oocarpa, line 2; experiment: Corresponding inositol experiments with Mexican Yellow Pine (Example 6); format: cell-based; conditions: inositol series as for Scots pine
[4] = system: somatic embryos of Norway spruce, cell line 06:28:05; experiment: Mature embryos left 12 days in maturation medium with 0.25 M inositol after particle bombardment (Example 1); format: cell-based
Text: The aim of the experiment was to infect somatic embryos of Norway spruce with a virus using a particle gun according to a routine method (Clapham et al. 2000: Scand. J. For. Res. 15:151-160) and derive plants containing the virus. The original standard bombardment procedure was developed for the transformation of embryogenic cultures consisting of immature embryos (i.e. proembryonic masses or PEMs). In the original protocol, from one to two hours before bombardment with gold particles coated with DNA, the cells are temporarily plasmolyzed with 0.25 M myo-inositol in proliferation medium (Table 4) to reduce damage from the penetration of the gold particles.
In the present experiment, mature embryos instead of PEMs were bombarded. The cultures of cell line 06:28:05, had been matured on standard DKM medium containing ABA for 50, days before bombardment. The embryos were exposed to medium containing 0.25, M inositol for 1-2, hours before bombardment. After bombardment the cells were unintentionally left in maturation medium containing 0.25, M inositol for 12, days, then returned to standard DKM medium containing ABA. […] About 50 plantlets with more or less well developed roots were planted out at once in pots containing mineral wool, which is not usually possible; fifteen of these survived and continued to grow. Sixty-two additional plantlets were grown aseptically on solid standard germination medium (quarter strength Schenk and Hildebrandt) to develop the root system for about 2, months; 51, of these grew well enough to plant out in pots of mineral wool. At least 48, of the plants were growing vigorously a month later. The appearance of these somatic embryo-derived plants encouraged the inventors to believe that mature embryos exposed to the relatively high concentration of inositol in the present experiment were of unusually high quality and ready for germination, without partial drying under high humidity for 2-3, weeks as in the standard procedure.

[5] = system: embryogenic cultures of cell-line 06:28:05; experiment: Maturation in temporary-immersion bioreactors, DKM+ABA then DKM+0.25 M inositol+ABA, then germination (Example 2); format: cell-based, Norway spruce
Experimental: Several experiments were performed to confirm the observations of Example 1 and to refine the novel culture method. Subsequent experiments confirm that the process of bombardment itself has no effect additional to the inclusion of 0.25, M myo-inositol in the medium. In the present experiment, embryogenic cultures of the same cell-line 06:28:05, were matured in bioreactors that enabled periodic temporary submersion in liquid DKM containing ABA. In two bioreactors, the embryos were matured for 38, days in DKM+ABA, then for 25 days in DKM+0.25, M inositol+ABA. In two control bioreactors, the cultures were maintained continuously in DKM+ABA, without the inositol treatment.
Embryos from the experimental and control reactors were placed on solid germination media in petri dishes mainly to optimize germination media. Plantlet quality was assessed after 6, days' germination as ‘bent’ or ‘not bent’. Whereas only 12, out of 134, (9%) inositol-treated embryos developed into bent plantlets, 50, out of 140, (36%) of the control embryos developed into bent plantlets. The difference was highly significant (P<0.0001) by Fisher's contingency test.

[6] = system: Norway spruce embryos, cell-lines 95:61:21 (61:21), 19:01 and 28:05; experiment: Germination (root length) on germination medium after inositol treatment, without partial drying (Example 5); format: cell-based
Experimental: Then 15, embryos from each concentration of inositol were transferred to germination medium (same as the prematuration medium). The progress of germination was measured by root length after 11, days on germination medium. Germination was fastest for the embryos that had been treated with 0.25, M inositol FIG. 6a. The difference between the root lengths after treatment at the three highest concentrations compared with those at the three lowest concentrations was highly significant by t-test (P<0.001). The experiment was repeated with another replicate of cell-line 61:21. This time, the inositol treatment was for 25, days, the small clumps of embryos were transferred to prematuration medium for 9, days, then 10, embryos were individually planted on prematuration medium and root length was measured 29, days later. […] The length of inositol treatment was 16, days for both lines. Root length was measured 12, or 14, days according to cell-line after transfer of 20, embryos for each concentration of inositol to prematuration medium for germination. For all four experiments of Example 5, root length after treatments of 0.2, to 0.3 M inositol was compared to root length after treatments with 0, to 0.1, M inositol in a paired t-test. […] The inventors have compared on a small scale the germination of inositol-treated embryos with partially dried embryos that have been matured by standard procedures.

[7] = system: embryogenic callus of Norway spruce, cell-lines 61:21, 19:01 and 28:05; experiment: Inositol concentration series on maturation medium, embryo quality measurements (Example 4); format: cell-based; conditions: for root development, indicating premature germination: FIG. 2a-c
Text: To investigate how various inositol concentrations synchronize embryo development and affect the quality of the developing embryos, three cell-lines of embryogenic callus of Norway spruce, cell-lines 61:21, 19:01, and 28:05, were exposed to 1, week on prematuration medium, and matured for 40, days, 36, days or 33, days, respectively on maturation medium with subculturing every two weeks. Small clumps about 1, cm diameter of maturing embryos were then subcultured on maturation medium containing 0.0005, M (here denoted 0, M), 0.06, M, 0.1, M, 0.2, M, 0.25, M or […] inositol.
Twenty individual mature embryos or small plantlets were picked randomly from the plates and the following measurements were taken, for quality measurement, see FIG. 1: width of hypocotyls (1), width across the cotyledons one third of the way down of the hypocotyls (2), width across the cotyledons two third of the way down of the hypocotyls (3) and length of the hypocotyls (4), length of root (5).

[8] = system: embryogenic cells, cell-line 06:28:05; experiment: Comparison of inositol with other sugar alcohols and with sucrose on solid DKM+ABA maturation medium (Example 3); format: cell-based, Norway spruce; conditions: for Plates with 10 high quality embryos: addition to standard medium: 0.25 M (or 0.125 M + 0.125 M), three plates of 1.0-1.5 g cells per treatment
Text: The action of 0.25, M inositol in improving somatic embryo quality is likely to be partly osmotic, partly nutritional, with cell signaling effects also involved. The inventors tested whether 0.25, M inositol could be replaced with 0.25, M of other sugar alcohols (mannitol and sorbitol) or 0.25, M extra sucrose by spreading 1.0, to 1.5, g fresh weight of embryogenic cells, cell-line 06:28:05, on each of six plates of solid DKM+ABA maturation medium for continued growth and development over four weeks, with one subculture after 2, weeks. The cells were then subcultured onto three plates each (1.0-1.5, g cells per plate) of medium containing in addition either a) 0.25, M inositol, or b) 0.125, M mannitol and 0.125, M sorbitol, or c) 0.25, M sucrose. Control cells continued on standard medium. After three weeks, embryos of good quality were transferred to germination medium, ten embryos per petri dish, as a rough quantitative estimate of quality.

somatic embryo cultures = experiment: Embryo culture in medium with plasmolytic or near plasmolytic concentration of sugar alcohol (general findings); format: cell-based; conditions: for effect on maturation in the embryo cultures: plasmolytic or near plasmolytic concentration
Text: The invention is based on a serendipitous discovery. Gene transfer to spruce somatic embryos using a particle gun was experimented with, using a special medium originally designed for use with gene transfer for embryogenic cultures, containing 0.25, M myo-inositol. The resulting plasmolysis reduces damage during penetration by the gold particles, since it relaxes the tension in the cell membranes and minimizes tearing. By mistake, the somatic embryos were left in this medium for 12, days instead of returning them to the normal proliferation medium as intended. […] Consequently, the cells are first plasmolyzed and then gradually deplasmolyzed.

[9] = high concentrations of inositol
[10] = 0.25 M inositol, after 6 days' germination, out of 134 embryos

O[C@H]1[C@H](O)[C@@H](O)[C@H](O)[C@@H](O)[C@H]1O [inositol, cis-1,2,3,5-trans-4,6-cyclohexanehexol]
signs of premature germination (hypocotyl extension, greening of cotyledons) ([1]; 0.0005 M and 0.1 M inositol, four weeks): some of the embryos showed characteristic signs of premature germination
maturation and precocious germination ([1]; 0.2-0.3 M inositol, four weeks): precocious germination was inhibited
proportion of embryos that developed healthy roots on the germination medium, compared with 0.0005 M ([1]; 0.25 M inositol): higher proportion
signs of stress (red colour under the cotyledons) within two days of germination on DKM ([1]; 0.25 M inositol): no such signs of stress
condition of embryos compared with those exposed to 0.0005 M inositol ([1]; 0.25 M inositol, groups of ten embryos germinated on DKM): in better condition
effect on further maturation of the embryos ([1]; 0.5 M inositol): inhibited further maturation of the embryos
condition of plants after three months in stonewool ([2]; 0.25 M inositol, growth chamber, continuous light, 20° C.): vigorous and healthy
longer term effects on subsequent growth [2, 9]: no unexpected longer term effects on subsequent growth
outcome compared with the Scots pine experiments [3]: showed the same tendencies
embryo appearance compared with embryos from the standard protocol ([4]; 0.25 M inositol): strikingly more uniform and broader in relation to length
plantlets that survived and continued to grow after being planted out at once in pots containing mineral wool ([4]; 0.25 M inositol 12 days, of about 50 plantlets planted out): fifteen
plantlets that grew well enough to plant out in pots of mineral wool ([4]; 0.25 M inositol 12 days, of sixty-two plantlets grown about 2 months on solid germination medium): 51
plants growing vigorously a month later ([4]; 0.25 M inositol 12 days, of the 51 planted out in mineral wool): At least 48
germination after return to standard DKM medium containing ABA ([4]; 0.25 M inositol for 12 days, observed after 8 days on standard DKM+ABA): many embryos had germinated and formed healthy well developed small plantlets
embryos that developed into bent plantlets (number) [5, 10]: 12
embryos that developed into bent plantlets (percent) [5, 10]: 9%
embryo appearance compared with controls ([5]; 38 days DKM+ABA then 25 days DKM+0.25 M inositol+ABA, bioreactors): strikingly more uniform, and broader in relation to length
yield of high-quality embryos relative to untreated controls ([5]; bioreactor experiment, 0.25 M inositol): six to eight
root length after 0.2 to 0.3 M inositol compared with 0 to 0.1 M inositol ([6]; all four experiments of Example 5, paired t-test, P<0.03): significantly greater
germination, measured by root length after 11 days on germination medium ([6]; cell-line 95:61:21, 0.25 M inositol for 17 days, 15 embryos, FIG. 6a): fastest
subsequent root growth on germination medium ([6]; cell-lines 19:01 and 28:05, 16 days inositol, root length at 12 or 14 days, FIGS. 6c, 6d): advantages of treatment with high concentrations of inositol for subsequent root growth
rooting, root length measured 29 days after planting on prematuration medium ([6]; replicate of cell-line 61:21, 0.25 M inositol for 25 days, 10 embryos, FIG. 6b): rooting fastest
germination compared with partially dried embryos matured by standard procedures ([6]; small scale comparison): shoots grow faster and more vigorously
effect on embryo development (summary) ([7]; 0.2-0.3 M inositol): synchronized development of the embryos by inhibiting germination but not embryo development
root development, indicating premature germination ([7]; 0.2-0.3 M inositol): inhibited almost completely
ratio of width one third down the hypocotyl (2) to width two thirds down the hypocotyl (3) ([7]; 0.2-0.3 M inositol, FIG. 5a-c): just above unity
coefficient of variation of width across the cotyledons (minimum) ([7]; cell-line 28:05, 0.25 M inositol, FIG. 4): 35%
inositol concentration at which the coefficient of variation of hypocotyl length is at a minimum (synchrony maximal) ([7]; cell-line 61:21, FIG. 3): 0.25 M
root development, indicating premature germination ([7]; low concentrations of inositol): present
variation in hypocotyl length ([7]; the other two cell-lines (19:01, 28:05), higher concentrations of inositol): reduced markedly
embryos of good quality relative to mannitol plus sorbitol ([8]; 0.25 M inositol vs 0.125 M mannitol plus 0.125 M sorbitol): about twice
Plates with 10 high quality embryos ([8]; three weeks): 6
need for partial drying before germination (somatic embryo cultures; [9]): require no further partial drying before germination
quality of mature embryos formed (somatic embryo cultures; high concentrations of inositol (myo-inositol) in the culture media): more robust mature embryos with improved rooting capabilities
effect on maturation in the embryo cultures (somatic embryo cultures): induce synchronous maturation

OC[C@@H](O)[C@@H](O)[C@H](O)[C@H](O)CO [mannitol]
effect on maturation in the embryo cultures (somatic embryo cultures): induce synchronous maturation

OC[C@@H](O)[C@@H](O)[C@H](O)[C@@H](O)CO [sorbitol]
effect on maturation in the embryo cultures (somatic embryo cultures): induce synchronous maturation

OC[C@H]1O[C@@](CO)(O[C@H]2O[C@H](CO)[C@@H](O)[C@H](O)[C@H]2O)[C@@H](O)[C@@H]1O [sucrose, reference compound]
effect on embryo quality ([8]; 0.25 M addition to DKM+ABA, three weeks): clearly detrimental effect
Plates with 10 high quality embryos ([8]; three weeks): 0
